Counter-ions that a name gives are not always drawn. Like-named read-outs stand apart in the source and are kept apart here.
What was measured:
[1] = test system: Trypanosoma brucei rhodesiense (T.b.r.); experiment: in vitro effectiveness against Trypanosoma brucei rhodesiense; type: cell-based
From the text: (§1) These compounds can thus be employed as treatments of second-stage human African trypanosomiasis.

[2] = test system: Plasmodium falciparum (P.f.); experiment: in vitro effectiveness against Plasmodium falciparum; type: cell-based
From the text: as §1

[3] = test system: Trypanosoma brucei rhodesiense (T.b.r.); experiment: in vivo effectiveness against T.b.r. (cures); settings: cures / animals treated
From the text: as §1

[4] = Trypanosoma brucei, RHODESIENSE

Structure (SMILES) | IC50 [1, 4] | IC50 ([2]; Plasmodium falciparum) | IC50 [1] | In vivo vs. T.b.r. cures [3] | IC50 [2] | melting point
CSc1cc(-c2ccc(-c3ccc(NC(=N)N)c(SC)c3)o2)ccc1NC(=N)N [Compound 42, 2,5-Bis(4-guanidino-3-thiomethoxyphenyl)furan Dihydrochloride] | 57 nM | 66 nM |  |  |  | 
Cc1cc(C(=N)N)ccc1-c1ccc(-c2nc3ccc(C(=N)N)cc3[nH]2)o1 [Compound 45, 2-{2-[5(6)-Amidino]benzimidazolyl}-5-[(4-amidino-2-methyl)-phenyl]-furan trihydochloride] |  |  | 9.4 nM | 2/4 | 147 nM | 
c1cc(-c2nc3ccc(C4=NCCN4)cc3[nH]2)ccc1CCc1ccc(-c2nc3ccc(C4=NCCN4)cc3[nH]2)cc1 [Compound 24, 4,4′-Bis{2-[-6(2-imidazolino]benzimidazolyl}-1,2-diphenylethanetetrahydrochloride] |  |  | 393 nM |  | 19.6 nM | 
CC(=O)O.N=C(N)c1ccc(-c2cccc(-c3nc4ccc(C(=N)N)cc4[nH]3)n2)cc1 [Compound 36, 2-(5-Amidinobenzimidazol-2-yl)-6-(4-amidinophenyl)pyridine acetate salt] | 24 nM | 9.7 nM |  | 1/4 |  | 
N#Cc1ccc(-c2cccc(C=O)n2)cc1 [Compound 6, 6-(4-Cyanophenyl)pyridine-2-carbaldehyde] | 21.7 nM | 25.5 nM |  |  |  | 158 to 159 °C
CCOc1cc(-c2ccc(-c3ccc(NC(=N)N)c(OCC)c3)o2)ccc1NC(=N)N [Compound 44, 2,5-Bis(3-ethoxy-4-guanidinophenyl)furan dihydrochloride] | 40 nM | 14.7 nM |  |  |  | 
N=C(Nc1ccc(-c2ccc(-c3ccc(NC(=N)c4ccccn4)cc3O)o2)c(O)c1)c1ccccn1 [Compound 43, 2,5-Bis[2-hydroxy-4-(2-pyridylimino)amino]furan Dihydrochloride] | 32 nM | 5.1 nM |  |  |  | 
N=C(N)c1ccc(-c2ccc(-c3nc4cc(C(=N)N)ccc4o3)o2)cc1 [Compound 41] | 11 nM | 32 nM |  | 4/4 |  | 

Reference: US20070088067A1, “Novel amidine compounds for treating microbial infections” (priority 2003, published 2007)
